We go through 15 molecules from patent publication US20110250133A1, “GASTRIN […] PEPTIDE COMPOUNDS” (priority 2003, published 2011).

In general, Kd refers to the equilibrium constant for the complex coming apart. A lower Kd goes with tighter binding. As a reminder, the EC50 is the midpoint of the concentration-response curve. A word on the IC50: it is the concentration at which inhibition is half-maximal. Higher therefore signals a need for much substance.

Where two headings read alike, the source gives them in different places.

In series [1] the test system is BT-474 human breast cancer cells. As to the kind of experiment: Effect of drug treatment on GRP receptor binding (177Lu-AMBA) in BT-474 cells. The class given is cell-based. Particulars: BT-474; relative to untreated control; drug 0.1-1.0 μM (4-OH Tamoxifen 0.001-0.1 μM).
Protocol: BT-474 breast cancer cells (human primary invasive ductal carcinoma; ER+, PR+, amplified HER2/neu+) were obtained from the American Type Culture Collection. The growth medium for BT-474 cells is Hybri-care Medium (Cat No: 46X, ATCC) supplemented with 10% heat inactivated FBS (Hyclone, SH30070.03), 0.2% NaHCO3, and antibiotic/antimycotic “PSF-1×” (GibcoBRL, 15240-062) for a final concentration of penicillin-streptomycin (1×, 100 units/mL), and fungizone (0.25 μg/mL). […] Cells for binding experiments were plated on Day 0 at 5.6×10^4 cells/cm^2 in 96-well white/clear bottom microtiter plates (Falcon Optilux-I), or 96 well black/clear collagen I cellware plates (Beckton Dickinson Biocoat).
(§1) RPMI 1640 supplemented with 20 mM HEPES, 0.1% BSA (w/v), 0.5 mM PMSF (AEBSF), bacitracin (50 mg/500 ml), pH 7.4.
(§2) Incubations were stopped by the addition of 200 μL of ice-cold binding buffer. Plates were washed three more times with binding buffer, 140 μL of scintillation fluid was added to each well, the plates were sealed and analyzed on a Microβ plate reader (Microbeta Trilux, Perkin-Elmer).
Treatment: BT-474 cells were plated on Day 0 and treated on Days 1 and 2 (DT1, DT2).
The test system of series [2] is T47D human breast cancer cells. As to the kind of experiment: Effect of drug treatment on GRP receptor binding (177Lu-AMBA) in T47D cells. Particulars: T-47D; relative to untreated control; drug 0.1-1.0 μM (4-OH Tamoxifen 0.001-0.1 μM). The class given is cell-based. The source says:
T-47D breast cancer cells (human metastatic mammary gland ductal adenocarcinoma isolated from pleural effusion, ER+, PR+) were obtained from the American Type Culture Collection.

Series [3] has as its system PC-3 prostate cancer cells. As to the kind of experiment: Effect of drug treatment on GRP receptor binding (177Lu-AMBA) in PC-3 cells. The class given is cell-based, human. Particulars: PC-3; drug 0.1-1.0 μM (4-OH Tamoxifen 0.001-0.1 μM).
Protocol: as §1, §2
PC-3 (human prostate adenocarcinoma, bone metastasis, AR-, ER) were obtained from the American Type Culture Collection. The growth medium for PC-3 cells is RPMI 1640 (10-041-CM, Mediatech, Inc), supplemented with 10% heat inactivated FBS (Hyclone, SH30070.03) and PSF-1× (as in Example LXVI). The binding buffer, lapatinib solutions, treatment method and cell binding assay is the same as in Example LXVI.
Series [4] has as its system ZR-75-1 human breast cancer cells. As to the kind of experiment: Effect of 4-hydroxytamoxifen on GRP receptor binding and glucose uptake in ZR-75-1 cells. The class given is cell-based.
Protocol: Method: ZR-75-1 breast cancer cell line (human ductal carcinoma with estrogen receptor) was obtained from the American Type Culture Collection (ATCC).
ZR-75-1 cells were plated on Day 0 (40 k/well 96-well PE Scintiplate). […] To determine the cell numbers and the proliferation, 100 uL of 10% CCK—F solution in DPBS (Molecular technologies) was added to the same plate, incubated for 30 min at 37° C. and the relative fluorescence (RFU) measured at 535 nm. Based on the cell numbers and the ^177Lu-binding, the Bmax (fmoles bound/million cells) was calculated.
The cell numbers were determined with CCK—F treatment as described above.
Series [5] has the same test system. As to the kind of experiment: Longterm (2-12 days) effect of 4-hydroxytamoxifen on GRP receptor binding in ZR-75-1 cells. The class given is cell-based.
Protocol: The ZR-75-1 cells were seeded at 15K per well onto two 96-well scintiplates on the same day as 2 days study.
For series [6], the target named is gastrin releasing peptide receptor (GRP-R) (human) (UniProt P30550). As to the kind of experiment: saturation binding of carrier-added radioligand on PC-3 cells, 4 C.
The target of the next series is T1, GRP-R (Homo sapiens, UniProt P30550).
T1 construct: host or cells: PC3 (PC-3) human prostate cancer cells, intact adherent cells
As to the kind of experiment: Competition studies of modified BBN analogs with 125I-BBN for GRP-R in PC3 cells (Example LXI). The class given is binding.

In the next series the test system is PC3 cells. As to the kind of experiment: Internalization and efflux assay in PC3 cells. The following applies: 125I-BBN or Lu-177 complexes; for Internalisation (40 minutes): 40 min at 37° C.; for Efflux (2 h): 2 h at 37° C. after 40 min loading. The class given is cell-based, human.
Series [7] concerns PC3 tumor-bearing nude mice. The class given is in vivo, mouse.
Protocol: In all studies, mice were administered 100 μL of ^177Lu-labeled test compound at 200 μCi/kg, i.v., with a residence time of 1 and 24 h per group (n=3-4). Tissues were analyzed in an LKB 1282 CompuGamma counter with appropriate standards.
Series [8] concerns PC3 tumor-bearing nude mouse model. As to the kind of experiment: Radiotherapy efficacy studies in the PC3 tumor-bearing nude mouse model. The class given is in vivo. Particulars: 177Lu labeled; for survival, Short Term Efficacy Study: 30 mCi/kg, up to 30 days, vs untreated and DO3A-monoamide-Aoc-QWAVGHLM-NH2 control; for survival, Long Term Efficacy Study: same dose, up to 120 days, vs controls. On the procedure: Radiotherapy studies were performed using the PC3 tumor-bearing nude mouse model. […] (n=12 for each treatment group for up to 30 days, and n=36 for the pooled untreated control group for up to 31 days). […] The subjects were housed in a barrier environment for the duration of the study. Body weight and tumor size (by caliper measurement) were collected on each subject 3 times per week for the duration of the study. Criteria for early termination included: death; loss of total body weight (TBW) equal to or greater than 20%; tumor size equal to or greater than 2 cm^3.

The target in the next series is T2, NMB-R (Rattus norvegicus, UniProt P24053).
T2 construct: C6, an NMB-R expressing rodent glioblastoma cell line; host or cells: C6 glioblastoma cells, intact adherent cells
T2 sequence (P24053 1-390): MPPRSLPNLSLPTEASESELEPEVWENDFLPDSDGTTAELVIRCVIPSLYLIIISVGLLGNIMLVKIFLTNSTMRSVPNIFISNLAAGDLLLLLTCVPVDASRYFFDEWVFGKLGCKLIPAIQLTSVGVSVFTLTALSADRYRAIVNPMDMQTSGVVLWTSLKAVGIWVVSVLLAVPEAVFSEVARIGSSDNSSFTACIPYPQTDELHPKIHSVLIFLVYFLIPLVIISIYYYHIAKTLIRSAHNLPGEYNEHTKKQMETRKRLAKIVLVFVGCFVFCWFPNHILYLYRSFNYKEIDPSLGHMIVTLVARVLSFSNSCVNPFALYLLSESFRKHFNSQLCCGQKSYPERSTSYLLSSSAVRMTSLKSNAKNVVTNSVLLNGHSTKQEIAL
As to the kind of experiment: Competition with 125I-NMB for NMB-R in C6 cells (linker specificity).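 As to all read-outs here: test cells: rodent glioblastoma C6 line carrying NMB-R, human prostate cancer PC3 line carrying GRP-R, affinity fitted by one-site competition nonlinear regression.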 The following applies: for receptor subtype preference (GRP-R vs NMB-R): from IC50 with 125I-NMB (C6) and 125I-BBN (PC3), cut off 10x the IC50 of [Tyr4]-BBN. The class given is binding, rodent.

Series [9] has as its target gastrin releasing peptide receptor (GRP-R) (human) (UniProt P30550). As to the kind of experiment: competition with 67Ga-AMBA on PC-3 cells, 4 C.
Series [10] has the same target. As to the kind of experiment: competition with 177Lu-AMBA on PC-3 cells, 4 C.
Series [11] shares this target. As to the kind of experiment: competition with 125I-universal ligand, receptor autoradiography on human cancer tissue.
The target in series [12] is human neuromedin-B preferring receptor (NMB-R) (human) (UniProt P28336). Described as above.
Where [13] appears, read: ZR-75-1, long-term treatment, 100 nM.
Setting [14] is: 177Lu-labeled, 1 and 24 h, compared with control DO3A-monoamide-Aoc-QWAVGHLM-NH2.
Setting [15] is: 177Lu-labeled, compared with control DO3A-monoamide-Aoc-QWAVGHLM-NH2.

T1 sequence (P30550 whole entry): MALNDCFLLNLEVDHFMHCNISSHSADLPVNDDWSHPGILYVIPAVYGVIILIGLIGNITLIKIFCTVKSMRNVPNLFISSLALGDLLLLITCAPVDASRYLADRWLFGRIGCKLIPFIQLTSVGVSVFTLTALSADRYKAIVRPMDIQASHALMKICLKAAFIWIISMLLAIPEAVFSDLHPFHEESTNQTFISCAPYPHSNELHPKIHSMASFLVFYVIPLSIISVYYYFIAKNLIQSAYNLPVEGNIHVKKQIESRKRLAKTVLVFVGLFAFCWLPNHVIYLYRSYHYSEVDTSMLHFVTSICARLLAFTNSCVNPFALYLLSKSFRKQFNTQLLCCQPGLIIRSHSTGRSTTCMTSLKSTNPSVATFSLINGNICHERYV
gastrin releasing peptide receptor (GRP-R) (human), sequence (P30550 whole entry): as above
human neuromedin-B preferring receptor (NMB-R) (human), sequence (P28336 whole entry): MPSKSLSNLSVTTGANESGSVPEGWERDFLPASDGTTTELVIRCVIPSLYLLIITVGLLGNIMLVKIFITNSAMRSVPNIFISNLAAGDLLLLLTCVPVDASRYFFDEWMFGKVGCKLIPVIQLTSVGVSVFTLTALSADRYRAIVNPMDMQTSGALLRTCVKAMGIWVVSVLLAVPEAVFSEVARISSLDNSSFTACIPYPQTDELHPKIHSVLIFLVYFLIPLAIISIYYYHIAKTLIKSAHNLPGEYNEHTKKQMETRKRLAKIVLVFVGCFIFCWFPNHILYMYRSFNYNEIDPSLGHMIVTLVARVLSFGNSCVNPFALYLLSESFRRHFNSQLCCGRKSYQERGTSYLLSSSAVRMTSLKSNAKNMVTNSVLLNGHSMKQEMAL

Turning to `CC/C(=C(\c1ccc(O)cc1)c1ccc(OCCN(C)C)cc1)c1ccccc1` [4-OH Tamoxifen, 4-hydroxytamoxifen], in [1], the “decrease in 177Lu-AMBA binding (GRP receptor specific signal per cell)” value is listed as “up to 73%”. Further, the “decrease in 177Lu-AMBA binding (GRP receptor specific signal per cell)” value in [2] is given as “up to 35%”. Also, the “change in GRP receptor specific signal per cell (177Lu-AMBA binding)” value in [3] is reported as “no change”. The “decrease in glycolysis (2-NBDG uptake)” value in series [4] (ZR-75-1) was approximately 20%. Moreover, the “change in cell proliferation” value in series [4] (ZR-75-1, 0-0.1 μM) is recorded as “little change”. The molecule also displayed an inhibition of proliferation in series [5] (ZR-75-1, 100 nM, by 12 day) of 28%. Also, in [5] (setting [13]), the 2-NBDG uptake entry was “smaller changes” and the 177Lu-AMBA uptake result is “significant reduction”.
Take 67Ga-AMBA (peptide): in [6], the Binding capacity (Bmax) (fmoles/1 × 10^6 cells) was determined as 402, the dissociation constant (Kd) was 0.46 nM and the Receptors/cell (receptors/cell) was found to be 242000.
Regarding “DO3A-Gly-Abz4-Gln-Trp-Ala-Val-Gly-His-Phe-Leu-NH2 [Compound L300]”, the “competition at the GRP-R” value at GRP-R is given as “high activity at the GRP-R”.
Turning to “N-[(3β,5β,12α)-3-[[[4,7,10-Tris(carboxymethyl)-1,4,7,10-tetraazacyclododec-1-yl]acetyl]amino]-glycyl-4-aminobenzoyl-L-glutaminyl-L-tryptophyl-L-alanyl-glycyl-L-histidyl-L-phenylalanyl-L-leucinamide [Compound L224]”, the “competition at the GRP-R” value on GRP-R is listed as “complete loss of binding”.
With DO3A-monoamide-Aoc-QWAVGHLM-NH2, in the series with PC3 cells, the “Internalisation (40 minutes)” value is recorded as 89% and the “Efflux (2 h)” value came to 28%.
Turning to `CSCC[C@H](NC(=O)[C@H](CC(C)C)NC(=O)[C@H](Cc1c[nH]cn1)NC(=O)CNC(=O)[C@@H](NC(=O)[C@H](C)NC(=O)[C@H](Cc1c[nH]c2ccccc12)NC(=O)[C@H](CCC(N)=O)NC(=O)CC[C@@H](C)[C@H]1CC[C@H]2[C@@H]3[C@H](O)C[C@@H]4C[C@@H](NC(=O)CNC(=O)CN5CCN(CC(=O)O)CCN(CC(=O)O)CCN(CC(=O)O)CC5)CC[C@]4(C)[C@H]3C[C@H](O)[C@]12C)C(C)C)C(N)=O` [Compound L64, N-[(3β,5β,7α,12α)-3-[[[[[4,7,10-Tris(carboxymethyl)-1,4,7,10-tetraazacyclododec-1-yl]acetyl]amino]acetyl]amino]-7,12-dihydroxy-24-oxocholan-24-yl]-L-glutaminyl-L-tryptophyl-L-alanyl-L-valyl-glycyl-L-histidyl-L-leucyl-L-methioninamide], in the series with PC3 cells, the “Internalisation (40 minutes)” value was 69% and the “Efflux (2 h)” value is listed as 20%. Moreover, the “uptake in the tumor” value in [7] (setting [14]) is recorded as “much higher”. Besides, in series [7] (setting [15]), the “uptake in the mouse pancreas” value was “much higher”. Moreover, in [8], the “survival, Short Term Efficacy Study” value is given as “increased survival” and the “survival, Long Term Efficacy Study” value is given as “significantly increased survival”. For the same molecule, the “receptor subtype preference (GRP-R vs NMB-R)” value on NMB-R was “dual affinity for both GRP-R and NMB-R”.
Turning to yGNLWATGHFM-NH2, at NMB-R, the “competition at NMB-R” value is reported as “effective NMB competitors”. Further, the “competition at the GRP-R” value at GRP-R is recorded as “unable to compete”.
For “N-[(3β,5β,12α)-3-[[[4,7,10-Tris(carboxymethyl)-1,4,7,10-tetraazacyclododec-1-yl]acetyl]amino]-glycyl-4-aminobenzoyl-L-glutaminyl-L-tryptophyl-L-alanyl-L-valyl-glycyl-L-histidyl-L-phenylalanyl-L-methioninamide [Compound L228]”, the “competition at the GRP-R” value at GRP-R is given as “maintains GRP-R activity”.
On to `CSCC[C@H](NC(=O)[C@H](CC(C)C)NC(=O)[C@H](Cc1c[nH]cn1)NC(=O)CNC(=O)[C@@H](NC(=O)[C@H](C)NC(=O)[C@H](Cc1c[nH]c2ccccc12)NC(=O)[C@H](CCC(N)=O)NC(=O)CC[C@@H](C)[C@H]1CC[C@H]2[C@@H]3CC[C@@H]4C[C@@H](NC(=O)CNC(=O)CN5CCN(CC(=O)O)CCN(CC(=O)O)CCN(CC(=O)O)CC5)CC[C@]4(C)[C@H]3C[C@H](O)[C@]12C)C(C)C)C(N)=O` [Compound L63, N-[(3β,5β,12α)-3-[[[[[4,7,10-Tris(carboxymethyl)-1,4,7,10-tetraazacyclododec-1-yl]acetyl]amino]acetyl]amino]-12-hydroxy-24-oxocholan-24-yl]-L-glutaminyl-L-tryptophyl-L-alanyl-L-valyl-glycyl-L-histidyl-L-leucyl-L-methioninamide], for which, in the series with PC3 cells, the “Internalisation (40 minutes)” value turned out to be 64% and the “Efflux (2 h)” value is 0%. For the same molecule, in series [7] (setting [14]), the “uptake in the tumor” value is “high tumor uptake”. Further, in series [7] (setting [15]), the “distribution of radioactivity in the blood, liver and kidneys” value was “increased blood and liver values at early times”; the “uptake in the mouse pancreas” value is recorded as “much higher”. Also, the “survival, Short Term Efficacy Study” value in series [8] was “increased survival”. The “receptor subtype preference (GRP-R vs NMB-R)” value at NMB-R is “dual affinity for both GRP-R and NMB-R”.
In the case of GNLWATGHFM-NH2, on NMB-R, the “competition at NMB-R” value is reported as “effective NMB competitors”. The “receptor preference in words (GRP-R / GRP-R and NMB-R)” value at NMB-R (wrapped cell: 'No selective preference' or 'preference for NMB-R') is reported as “preference for NMB-R”. Besides, at GRP-R, the “competition at the GRP-R” value was “unable to compete”.
As for “N-[(3β,5β,12α)-3-[[[4,7,10-Tris(carboxymethyl)-1,4,7,10-tetraazacyclododec-1-yl]acetyl]amino]-glycyl-4-aminobenzoyl-L-leucyl-L-tryptophyl-L-alanyl-L-valinyl-glycyl-L-serinyl-L-phenylalanyl-L-methioninamide [Compound L225]”, the “competition at the GRP-R” value at GRP-R is given as “reduces competition at the GRP-R”.
As for 175Lu-L70 (peptide), the half-maximal effective concentration (EC50) in series [9] stood at 1.28 nM; in series [10], 1.47 nM. Also, the half-maximal inhibitory concentration (IC50) in series [11] was determined as 0.8 nM; in [12] it was 0.9 nM.
On to “[DTyr6, βAla11, Phe13, Nle14]-BBN(6-14) (peptide)”, for which the IC50 in series [11] was found to be 0.7 nM; in [12], 0.8 nM.
As for “N-[4-[[[[[4,7,10-Tris(carboxymethyl)-1,4,7,10-tetraazacyclododec-1-yl]acetyl]amino]acetyl]amino]benzoyl]-L-glutaminyl-L-tryptophyl-L-alanyl-L-valyl-glycyl-L-histidyl-L-leucyl-L-methioninamide [Compound L70]”, in the series on PC3 cells, the “Internalisation (40 minutes)” value is listed as 70% and the “Efflux (2 h)” value was 12%. For the same molecule, the “uptake in the tumor” value in series [7] (mouse, in vivo) is “much higher”. Moreover, in [8], the “survival, Short Term Efficacy Study” value is given as “increased survival” and the “survival, Long Term Efficacy Study” value is “significantly increased survival”. In addition, the “receptor subtype preference (GRP-R vs NMB-R)” value on NMB-R was “dual affinity”.
Turning to Ga-AMBA (non-radioactive) (peptide), the 50% effective concentration (EC50) in series [9] is 1 nM; in [10] it was 1.15 nM.
